Source: paper PMC9905294 (Biochemistry, 2023)
Values after ≈ are worked out from the molar mass of the structure shown. Like-named read-outs stand apart in the source and are kept apart here.

Columns and labels:
AAC(2’)-Ic = AAC(2’)-Ic (Mycobacterium tuberculosis, UniProt P9WQG9); assay: Inhibitor selectivity, NEO acetylation assay; assay type: biochemical; details: concentrations up to 200 μM
Mtb Eis [1] = target: T1, Mtb Eis (Mycobacterium tuberculosis, UniProt P9WFK7); assay: Eis acetylation assay; assay type: biochemical
T1 sequence (P9WFK7 whole entry): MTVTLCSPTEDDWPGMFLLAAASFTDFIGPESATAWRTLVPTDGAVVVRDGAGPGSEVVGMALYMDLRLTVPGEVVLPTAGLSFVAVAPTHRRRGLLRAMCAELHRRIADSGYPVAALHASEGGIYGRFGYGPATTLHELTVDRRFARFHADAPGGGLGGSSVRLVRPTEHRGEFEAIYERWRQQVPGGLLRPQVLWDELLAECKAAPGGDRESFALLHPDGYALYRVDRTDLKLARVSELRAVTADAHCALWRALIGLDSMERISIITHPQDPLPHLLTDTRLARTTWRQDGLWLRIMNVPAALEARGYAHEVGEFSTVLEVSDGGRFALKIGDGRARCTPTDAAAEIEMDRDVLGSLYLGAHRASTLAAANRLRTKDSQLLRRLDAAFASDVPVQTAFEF

Mtb mc^26230 = assay: MIC determination of compounds alone; assay type: cell-based, Mycobacterium tuberculosis; details: for MIC: Mycobacterium tuberculosis, read-out: MIC mc^26230; for MIC mc^26230: compound alone, duplicate
AAC(6’)-Ie/APH(2”)-Ia = AAC(6’)-Ie/APH(2”)-Ia (Staphylococcus aureus, UniProt P0A0C1); assay: Inhibitor selectivity, NEO acetylation assay; assay type: biochemical; details: concentrations up to 200 μM
Sequence of AAC(6’)-Ie/APH(2”)-Ia (P0A0C1 whole entry): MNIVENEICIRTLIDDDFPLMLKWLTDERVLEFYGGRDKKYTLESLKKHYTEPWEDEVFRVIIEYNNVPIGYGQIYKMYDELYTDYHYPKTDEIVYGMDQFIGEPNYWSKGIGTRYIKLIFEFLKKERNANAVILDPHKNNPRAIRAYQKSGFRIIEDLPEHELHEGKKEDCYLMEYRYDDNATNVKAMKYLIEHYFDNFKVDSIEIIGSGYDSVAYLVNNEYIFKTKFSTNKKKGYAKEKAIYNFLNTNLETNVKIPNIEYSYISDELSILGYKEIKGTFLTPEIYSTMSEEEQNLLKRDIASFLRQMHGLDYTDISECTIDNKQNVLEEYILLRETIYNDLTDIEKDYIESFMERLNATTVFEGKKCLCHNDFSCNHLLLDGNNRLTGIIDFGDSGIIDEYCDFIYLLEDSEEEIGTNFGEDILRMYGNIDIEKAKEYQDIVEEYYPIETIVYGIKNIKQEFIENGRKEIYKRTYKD

AAC(3)-IV = AAC(3)-IV (Salmonella sp, UniProt P08988); assay type: biochemical; details: concentrations up to 200 μM
Sequence of AAC(3)-IV (P08988 whole entry): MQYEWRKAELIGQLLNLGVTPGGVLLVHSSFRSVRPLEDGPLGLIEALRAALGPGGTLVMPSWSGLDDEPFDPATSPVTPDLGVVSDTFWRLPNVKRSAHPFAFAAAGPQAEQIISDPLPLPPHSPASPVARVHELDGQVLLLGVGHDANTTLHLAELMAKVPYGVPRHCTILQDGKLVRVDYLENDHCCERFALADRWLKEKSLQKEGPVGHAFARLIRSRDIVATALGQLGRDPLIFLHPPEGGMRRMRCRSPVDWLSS

Mtb Eis [2] = target: T1, Mtb Eis; assay type: biochemical; details: for mode of inhibition with respect to KAN: Michaelis-Menten analysis of KAN acetylation by Eis
Mtb Eis [3] = target: T1, Mtb Eis; assay: Screening acetylation assay with NEO as substrate; assay type: biochemical; details: conditions of the original high-throughput assay; compound 20 μM, NEO 100 μM
[4] = with respect to KAN, global nonlinear regression fit
[5] = Eis 0.25 μM, KAN 100 μM, AcCoA 0.5 mM, Tris-HCl pH 8.0, triplicate

Sequence of AAC(2’)-Ic (P9WQG9 whole entry): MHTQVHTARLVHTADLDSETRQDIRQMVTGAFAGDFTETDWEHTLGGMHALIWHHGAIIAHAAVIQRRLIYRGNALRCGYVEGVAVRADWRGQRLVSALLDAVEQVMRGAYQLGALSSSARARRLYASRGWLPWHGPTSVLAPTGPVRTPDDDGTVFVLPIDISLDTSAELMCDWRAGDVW

Structure (SMILES) | inhibition of NEO acetylation by AAC(2’)-Ic (AAC(2’)-Ic) | IC50 (Mtb Eis [1]) [µM] | MIC (Mtb mc^26230) [µM] | inhibition of NEO acetylation by AAC(6’)-Ie (AAC(6’)-Ie/APH(2”)-Ia) | inhibition of NEO acetylation by AAC(3)-IV (AAC(3)-IV) | Ki (Mtb Eis [2]) [µM] | mode of inhibition with respect to KAN (Mtb Eis [2]) | Ki,u (equilibrium constant for inhibitor binding to enzyme-substrate complex) (Mtb Eis [2]; [4]) | MIC mc^26230 (Mtb mc^26230) [µM] | other results
CN1CCCC(n2nc(Cc3ccc(Cl)cc3)c3ccccc3c2=O)CC1 (stereo not shown) [Azelastine (AZL), Azelastine] | not inhibited | 0.79 ± 0.08 | 32 (≈ 12.2 µg/mL) | not inhibited | not inhibited | 0.24 ± 0.05 | competitive | 0.9 ± 0.5 (p = 0.08) μM |  | 
[H]/N=C(\N/C(=N/[H])NCCCCCCNC(=N)NC(=N)Nc1ccc(Cl)cc1)Nc1ccc(Cl)cc1 [Chlorhexidine (CHX), Chlorhexidine] |  |  | ≤ 0.03 |  |  |  |  |  |  | 
CCN(CC)CCCC(C)Nc1ccnc2cc(Cl)ccc12 (stereo not shown) [Chloroquine (CHQ), Chloroquine] | not inhibited | 20 ± 2 | 64 (≈ 20.5 µg/mL) | not inhibited | not inhibited | 12.3 ± 2.7 | competitive | 35 ± 20 (p = 0.1) μM |  | 
NC(N)=NN=Cc1ccc(Cl)cc1 [Compound 1] |  |  |  |  |  |  | competitive inhibition |  | > 64 | IC50 (Mtb Eis [1]; [5]): 10 ± 3 µM; fold more potent than PRO as an Eis inhibitor (Mtb Eis [1]; ratio of IC50 values vs PRO): 3 fold; Ki (Mtb Eis [2]; read-out: Ki (equilibrium constant for inhibitor binding to free enzyme), with respect to KAN, global nonlinear regression fit): 17 ± 2.4 µM
Fc1cccc(NN=Cc2ccc(Cl)cc2)c1 [Compound 2] |  |  |  |  |  |  | uncompetitive inhibition | 104 ± 8 µM | > 64 | IC50 (Mtb Eis [1]; [5]): 160 ± 49 µM; IC50 fold higher than that of PRO (Mtb Eis [1]; ratio of IC50 values vs PRO): 5 fold
Fc1ccc(NN=Cc2ccc(Cl)cc2)cc1 [Compound 3] |  |  |  |  |  |  |  |  | > 64 | IC50 (Mtb Eis [1]; [5]): > 200 µM; IC50 fold higher than that of PRO (Mtb Eis [1]; ratio of IC50 values vs PRO): > 7 fold
NNC(=O)c1ccncc1 [Isoniazid (INH), Isoniazid] |  |  | ≤ 3.6 |  |  |  |  |  |  | 
NC[C@H]1O[C@H](O[C@H]2[C@H](O)[C@@H](O[C@H]3O[C@H](CO)[C@@H](O)[C@H](N)[C@H]3O)[C@H](N)C[C@@H]2N)[C@H](O)[C@@H](O)[C@@H]1O [Kanamycin (KAN), Kanamycin] |  |  |  |  |  |  |  |  | 0.17 (≈ 0.0824 µg/mL) | 
OC(c1cc(C(F)(F)F)nc2c(C(F)(F)F)cccc12)C1CCCCN1 (stereo not shown) [Mefloquine (MEF), Mefloquine] | not inhibited | 4.2 ± 0.8 | 16 (≈ 6.05 µg/mL) | not inhibited | not inhibited | 7.2 ± 1.1 |  | 5.9 ± 1.3 (p = 0.0002) μM |  | 
[H]/N=C(\N/C(=N/[H])Nc1ccc(Cl)cc1)NC(C)C [Proguanil (PRO), Proguanil] | not inhibited | 30 ± 7 | > 64 | not inhibited | not inhibited | 28 ± 10 |  |  |  | inhibition of NEO acetylation activity of Mtb Eis (Mtb Eis [3]): detectable inhibition
COc1ccc(C(CN(C)C)C2(O)CCCCC2)cc1 (stereo not shown) [Venlafaxine (VEN), Venlafaxine] |  | 134 ± 21 | > 64 |  |  |  |  |  |  | inhibition of NEO acetylation activity of Mtb Eis (Mtb Eis [3]): detectable inhibition
